Assay [1] deals with MYC target genes. As to the kind of experiment: qRT-PCR of MYC target genes. Type of assay: cell-based, human. Conditions: qRT-PCR and RNA-seq; result in words. The method, then: Total RNA was extracted using TRIzol (Invitrogen, CA, USA) according to the manufacturer’s instructions. Reverse transcription of total cellular RNA was carried out using oligo (dT) primers and M-MLV reverse transcriptase (Transgen Biotech, Beijing, China). PCR was performed using a Mycycler thermal cycler and analyzed using LineGene9600. The PCR primer sequences were as follows: MYC forward, 5′-[…]-3′; MYC reverse, 5′-[…]-3′; GAPDH forward, 5′-[…]-3′; GAPDH reverse, 5′-[…]-3′; TFAP4 forward, 5′-[…]-3′, TFAP4 reverse, 5′-[…]-3′; PLD6 forward, 5′-[…]-3′, PLD6 reverse, 5′-[…]-3′; CCNA1 forward, 5′-[…] GCAG-3′, CCNA1 reverse, 5′-[…]-3′; CCND1 forward, 5′-CCGTCC […]-3′, CCND1 reverse, 5′-[…]-3′; CCNE2 forward, 5′-TTC […]-3′; and CCNE2 reverse, 5′-[…]-3′. The human FBXW7 siRNA sequence was 5′-[…]-3′, the human MYC siRNA sequence was 5′-[…] GCGAA-3′, and the human HUWE1 siRNA sequence was 5′-[…]-3’. TRIB3 siRNAs were produced by RiboBio (Guangzhou, China) and transfected using Lipofectamine RNA interference MAX Transfection Reagent (Life Technologies, CA, USA) according to the manufacturer’s instructions.

The subject of assay [2] is TRIB3-MYC interaction. As to the kind of experiment: SIM imaging and Co-IP of the TRIB3-MYC interaction in Raji cells. Conditions: SIM (30 min) and Co-IP (4 μM, six hours), versus PCON, result in words. It is filed as cell-based, human. Here is the method:
Co-IP experiments were performed as described previously. Briefly, cells were collected and lysed for 30 min on ice. Soluble lysates were incubated with the indicated antibodies at 4 °C overnight, followed by incubation with Protein A/G Plus-Agarose (Santa Cruz Biotechnology, TX, USA) at 4 °C for 2 h. Soluble lysates were incubated with the indicated Anti-Myc magnetic beads (Bimake.com, B26302), Anti-Flag Affinity Gel (Bimake.com, B23102) or Anti-HA Affinity Gel (Bimake.com, B23302) at 4 °C overnight. Immunocomplexes were separated from the beads and then boiled for 10 min. The precipitated proteins were subjected to SDS-PAGE and blotted with specific antibodies. For immunoblotting assays, proteins were extracted from cells, spleens, or lymphoma tissues using RIPA buffer (Cell Signaling Technology, MA, USA). A BCA Protein Assay Kit was used to determine protein concentrations. Protein extracts were separated by SDS-PAGE, transferred onto PVDF membranes, and subjected to immunoblot analysis. Western blot images were captured by a Tanon 5200 chemiluminescent imaging system (Tanon, Shanghai, […]). Human lymphoma and benign LN paraffin tissue microarrays were purchased from US Biomax (LM482a).
Cells (~20,000) were grown on coverslips and fixed with formalin after the indicated treatment. […]

The subject of assay [3] is DLBCL^T69 PDX. The assay can be described thus: PDX model tumor growth and weight, DLBCL T69. Type of assay: in vivo, human. Conditions: result in words. Here is the method:
(§1) Four 5-week-old male NSG mice were implanted subcutaneously with 200 μl of a 1:1 mixture of Matrigel® Basement Membrane Matrix High Concentration (Corning, 354230) and minced fresh tumor fragments resected from lymphoma patients. Approximately 3–4 weeks following implantation, the first-generation mice (G1) were killed, and tumor masses were isolated. The tumor cells were tested for human CD19 (BCL) or CD3 expression (T cell lymphoma), and the remaining tumor mass was cut into 3-mm^3 sections and passaged into 4–5 NSG mice as the second generation (G2). After stable passage of the third generation (G3), the tumor mass of the fourth generation (G4) was equally cut into 3-mm^3 pieces and then passaged subcutaneously into 30–50 NSG mice (100 μl of a 1:2 mixture of Matrigel and tumor tissue) for in vivo treatment (6–8 mice per group, dependent on the experimental drug treatment). During and after treatment with the vehicle control or the indicated agent, tumor burden was evaluated by measuring the tumor volume to determine the therapeutic efficacy in the PDX models. […]
(§2) To evaluate the survival rate, these mice were monitored for 8 months (Myc^Eμ mice). […] During the indicated treatments, tumor burden was evaluated by measuring the tumor volume to determine the therapeutic efficacy in the PDX models.

The test system of assay [4] is PTCL^T144 PDX. The assay can be described thus: PDX model tumor growth and weight, PTCL T144. Type of assay: in vivo, human. Conditions: result in words. The method, then: as §1, §2

“HLYVSPWGGKRREQLKHKLEQLR [PCM4, fused peptide generated by linking CM4 to a cell-penetrating peptide]”: the “transcription of MYC target genes” value in assay [1] is “suppressed the transcription of MYC target genes”. The “colocalization and interaction of TRIB3 with MYC in lymphoma cells” value in assay [2] is “inhibited the colocalization and interaction of TRIB3 with MYC”. Moreover, the “growth and weights of tumors, combination of PCM4 and DOX” value is “further decreased the growth and weights of tumors” in assay [3] (PDX T69 (high TRIB3 and MYC expression), PCM4 5 mg/kg and DOX 2 mg/kg); “further decreased the growth and weights of tumors” in assay [4] (PDX T144 (high TRIB3 and MYC expression), PCM4 5 mg/kg and DOX 2 mg/kg). Moreover, the “tumor growth of PDX” value in assay [3] (PDX T69, NSG mice, PCM4 5 mg/kg i.v. three times a week) is reported as “inhibited the tumor growth”; in assay [4] (PDX T144, NSG mice, PCM4 5 mg/kg i.v. three times a week) it was “inhibited the tumor growth”.

The record behind these values is paper PMC7725785, “TRIB3 promotes MYC-associated lymphoma development through suppression of UBE3B-mediated MYC degradation” (Nature Communications, 2020).
